These results are taken from US12605653B2, “Anionic switchable hydrophilicity solvents” (QUEEN'S UNIVERSITY AT KINGSTON, priority 2022, dated 2026).

The structures appear in SMILES notation.

A short description of data set [1]: Evaluation of the switching behaviour of ASHS systems (carboxylic acid/base/water) under air and 1 bar of CO2. The class given is physicochemical. Particulars: for Behaviour of the system: base NaOH; for Behaviour of the system after CO2 addition / pH under 1 bar of CO2 / pH under air: 20° C.; for Phase behaviour upon addition of 1 bar of CO2: base Jeffamine D-230, TEA, DMEA or 3DMAP, base:acid mole ratio 1:1, water:acid mass ratio 15:1 and other ratios; for Phase behaviour upon addition of CO2 / Phases under air: substoichiometric aqueous NaOH, 0.6 to 0.7 equivalents of base. As to the method:
Base solutions were prepared by combining the desired base and water (mass for components measured in an analytical scale) into either a 10 or 25 mL graduated cylinder (containing a magnetic stir bar) depending on the final volume of the mixture obtained. The carboxylic acid (mass measured using an analytical balance prior to addition) being studied was added to the base solution, and the mixture was mixed with the help of a magnetic stir plate. The amount of base and water used were selected based on the acid:base:water ratio desired. Experiments were carried out using stoichiometric and substoichiometric amounts of the base relative to the number of mols of acid added. In addition, the quantity of water used was adjusted based on the acid:water mass ratio desired. A typical experiment would contain 1 g of the carboxylic acid; between 0.4 and 1 mol of base per mol of acid; and a water mass varying from 1 to 9.5 g.
During a typical experiment, CO2 would be added for approximately 2 h at atmospheric pressure. At the end of the 2 h, the sparge tube would be removed, and the number and volume of the phases obtained would be recorded. The pH was once again recorded. For mixtures with only 1 phase, the pH of that phase was recorded. While for mixtures with 2 phases, the pH of the aqueous phase was recorded.
In the systems in which the base:acid mole ratio and the water:acid mass ratio were being studied, a slight modification from this method was used. The acid being tested (1 g) was mixed with 1 g of water and the required amount of NaOH (based on the acid:base molar ratio desired) to prepare the mixture. […]
The base solution was then added to the carboxylic acid, and the next steps followed the procedure previously described.

For data set [2] the following is noted: CPPA-EPS mixture, limited by viscosity; 60° C.
Where [3] appears, read: base 3DMAP, base:acid mole ratio 0.45:1, H2O:acid mass ratio 2.5:1.
[4] abbreviates: base DMEA, base:acid mole ratio 0.50:1, H2O:acid mass ratio 2.5:1.
Setting [5] is: base Jeffamine D-230 (two moles acid per mole D-230), H2O:acid mass ratio 12:1, 1 bar CO2, partial = acid recovered smaller than mass added.
Where [6] appears, read: base Jeffamine D-230 (two moles acid per mole D-230), H2O:acid mass ratio 12:1.
[7] abbreviates: base Jeffamine D-230 (two moles acid per mole D-230), H2O:acid mass ratio 15:1, 1 bar CO2, partial = acid recovered smaller than mass added.
[8] abbreviates: base Jeffamine D-230 (two moles acid per mole D-230), H2O:acid mass ratio 15:1.
The mark [9] stands for this setting: base MDEA, base:acid mole ratio 0.50:1, H2O:acid mass ratio 2.5:1.
Setting [10] is: carboxylic acid:H2O mass ratio 1:2.5, carboxylic acid:NaOH mol ratio 1:0.8.
Where [11] appears, read: base TEA, base:acid mole ratio 0.40:1, H2O:acid mass ratio 2.5:1.
Where [12] appears, read: base 3DMAP, base:acid mole ratio 0.55:1, H2O:acid mass ratio 2.5:1.
[13] abbreviates: base DMEA, base:acid mole ratio 0.60:1, H2O:acid mass ratio 2.5:1.
Setting [14] is: base Jeffamine D-230 (two moles acid per mole D-230), H2O:acid mass ratio 1:1-9.5:1.
Where [15] appears, read: base MDEA, base:acid mole ratio 0.65:1, H2O:acid mass ratio 2.5:1.
Where [16] appears, read: base TEA, MDEA, DMEA or 3-DMAP, base:acid mol ratio 1:1, H2O:acid mass ratio 12:1-15:1.
Setting [17] is: base TEA, base:acid mole ratio 0.65:1, H2O:acid mass ratio 2.5:1.
Where [18] appears, read: base 3DMAP, base:acid mole ratio 0.60:1, H2O:acid mass ratio 2.5:1.
The mark [19] stands for this setting: base DMEA, base:acid mole ratio 0.55:1, H2O:acid mass ratio 2.5:1.
[20] abbreviates: base MDEA, base:acid mole ratio 0.55:1, H2O:acid mass ratio 2.5:1.
The mark [21] stands for this setting: base TEA, base:acid mole ratio 0.60:1, H2O:acid mass ratio 2.5:1.

As to `CCCCCCCCC(CCCCCC)C(=O)O` (centres unmarked) [2-hexyldecanoic acid], the “Behaviour of the system” value in data set [1] (carboxylic acid:H2O mass ratio 1:12, carboxylic acid:NaOH mol ratio 1:1) is recorded as “Biphasic under air”.

As for `CC(C(=O)O)c1ccccc1` (centres unmarked) [2-phenylpropionic acid], the “Behaviour of the system” value in data set [1] (carboxylic acid:H2O mass ratio 1:2.5, carboxylic acid:NaOH mol ratio 1:0.5 and 1:0.6) is “Monophasic under”.

As to `C=CCCCCCCCCC(=O)O` [10-undecenoic acid], in data set [1] (carboxylic acid:H2O mass ratio 1:2.5, carboxylic acid:NaOH mol ratio 1:1), the “Behaviour of the system” value is given as “Switchable”.

On to `O=C(O)CCC1CCCC1` [CPPA, 3-cyclopentylpropionic acid], for which the “Behaviour of the system after CO2 addition” value is “Phase separation above 50” in data set [1] (base 3DMAP, base:acid mole ratio 0.45:1, H2O:acid mass ratio 2.5:1, 1 bar CO2, threshold 50 vol % recovered); “No phase separation” in data set [1] (base DMEA, base:acid mole ratio 0.50:1, H2O:acid mass ratio 2.5:1, 1 bar CO2); “No phase separation” in data set [1] (setting [5]); “No phase separation” in data set [1] (setting [7]); “No phase separation” in data set [1] (base MDEA, base:acid mole ratio 0.50:1, H2O:acid mass ratio 2.5:1, 1 bar CO2); “No phase separation” in data set [1] (base TEA, base:acid mole ratio 0.40:1, H2O:acid mass ratio 2.5:1, 1 bar CO2). Besides, the “pH under 1 bar of CO2” value is 6.02 in data set [1] (setting [3]); 6.25 in data set [1] (setting [4]); 6.55 in data set [1] (setting [6]); 6.45 in data set [1] (setting [8]); 6.23 in data set [1] (setting [9]); 6.04 in data set [1] (setting [11]). In addition, the pH under air in data set [1] (setting [3]) amounted to 6.06; in data set [1] (setting [4]), 6.22; in data set [1] (setting [6]) it was 7.00; in data set [1] (setting [8]) it was 6.94; in data set [1] (setting [9]), 6.16; in data set [1] (setting [11]), 5.98. In data set [1] (MDEA), the “Phase behaviour upon addition of 1 bar of CO2” value is listed as “no phase separation was observed”. Besides, the “Behaviour of the system” value in data set [1] (2:1 H2O:acid mass ratio, 1 bar CO2, narrow range of base:acid ratio) is reported as “successful switchable behaviour”; in data set [1] (setting [10]), “Switchable”. Moreover, in data set [1], the “Phase behaviour upon addition of CO2” value is “phase separation was observed”. Further, the Phases under air result in data set [1] is “one phase”. Moreover, in data set [2], the “maximum polymer (EPS) loading attained in the carboxylic acid” value was found to be 50 wt %.

`CCCCCC(=O)O` [Hexanoic acid, hexanoic acid]: the “Behaviour of the system” value in data set [1] (carboxylic acid:H2O mass ratio 2:1, carboxylic acid:NaOH mol ratio 1:0.6) is reported as “Monophasic under”.

Consider `CC(C)C(=O)O` [Isobutyric acid, isobutyric acid], for which the “Behaviour of the system” value in data set [1] (carboxylic acid:H2O mass ratio 1:2.5, carboxylic acid:NaOH mol ratio 1:0.6) was “Monophasic under”.

Consider `CCCCC/C=C\C/C=C\CCCCCCCC(=O)O` [Linoleic acid, linoleic acid], for which the “Behaviour of the system” value in data set [1] (carboxylic acid:H2O mass ratio 1:5, carboxylic acid:NaOH mol ratio 1:1) is “Biphasic under air”.

For `CCCCCCCCC(=O)O` [Nonanoic acid, nonanoic acid], in data set [1] (carboxylic acid:H2O mass ratio 1:2.5, carboxylic acid:NaOH mol ratio 1:0.7), the “Behaviour of the system” value was “Switchable”.

Take `CCCCCCCC(=O)O` [Octanoic acid, octanoic acid, reference compound]: the “Behaviour of the system after CO2 addition” value in data set [1] (base 3DMAP, base:acid mole ratio 0.55:1, H2O:acid mass ratio 2.5:1, 1 bar CO2, threshold 50 vol % recovered) is “Phase separation below 50”; in data set [1] (base DMEA, base:acid mole ratio 0.60:1, H2O:acid mass ratio 2.5:1, 1 bar CO2, threshold 50 vol % recovered), “Phase separation below 50”; in data set [1] (base Jeffamine D-230 (two moles acid per mole D-230), H2O:acid mass ratio 1:1-9.5:1, 1 bar CO2), “No phase separation”; in data set [1] (setting [7]), “Partial phase separation^b”; in data set [1] (base MDEA, base:acid mole ratio 0.65:1, H2O:acid mass ratio 2.5:1, 1 bar CO2), “No phase separation”; in data set [1] (base TEA, MDEA, DMEA or 3-DMAP, base:acid mol ratio 1:1, H2O:acid mass ratio 12:1-15:1, 1 bar CO2) it was “No phase separation”. Also, the “Behaviour of the system after CO2 addition” value in data set [1] (base TEA, base:acid mole ratio 0.65:1, H2O:acid mass ratio 2.5:1, 1 bar CO2) was “No phase separation”. For the same molecule, the “pH under 1 bar of CO2” value was 6.46 in data set [1] (setting [12]); 6.71 in data set [1] (setting [13]); 6.85-7.60 in data set [1] (setting [14]); 6.70 in data set [1] (setting [8]); 6.65 in data set [1] (setting [15]); 6.70-6.90 in data set [1] (setting [16]). Further, the “pH under 1 bar of CO2” value in data set [1] (setting [17]) stood at 6.75. Further, the pH under air is recorded as 6.34 in data set [1] (setting [12]); 6.86 in data set [1] (setting [13]); 7.60-7.90 in data set [1] (setting [14]); 7.55 in data set [1] (setting [8]); 6.69 in data set [1] (setting [15]); 7.60-7.70 in data set [1] (setting [16]). Further, the pH under air in data set [1] (setting [17]) was 6.68. Besides, the “Phase behaviour upon addition of 1 bar of CO2” value in data set [1] (MDEA) is “no phase separation was observed”. The “Behaviour of the system” value in data set [1] (carboxylic acid:H2O mass ratio 1:1.5 and 1:2.5, carboxylic acid:NaOH mol ratio 1:0.9) is “Switchable”.

Consider `CCCCCCCC/C=C\CCCCCCCC(=O)O` [Oleic acid, oleic acid], for which the “Behaviour of the system” value in data set [1] (carboxylic acid:H2O mass ratio 1:10, carboxylic acid:NaOH mol ratio 1:1) was “Biphasic under air”.

As to `CCCC(CCC)C(=O)O` [PPA, 2-propylpentanoic acid], the “Behaviour of the system after CO2 addition” value in data set [1] (base 3DMAP, base:acid mole ratio 0.60:1, H2O:acid mass ratio 2.5:1, 1 bar CO2, threshold 50 vol % recovered) is “Phase separation above 50”; in data set [1] (base DMEA, base:acid mole ratio 0.55:1, H2O:acid mass ratio 2.5:1, 1 bar CO2, threshold 50 vol % recovered), “Phase separation above 50”; in data set [1] (setting [5]), “Partial phase separation”; in data set [1] (setting [7]), “Partial phase separation”; in data set [1] (base MDEA, base:acid mole ratio 0.55:1, H2O:acid mass ratio 2.5:1, 1 bar CO2, threshold 50 vol % recovered), “Phase separation above 50”; in data set [1] (base TEA, base:acid mole ratio 0.60:1, H2O:acid mass ratio 2.5:1, 1 bar CO2), “No phase separation”. The “pH under 1 bar of CO2” value in data set [1] (setting [18]) turned out to be 6.70; in data set [1] (setting [19]), 6.78; in data set [1] (setting [6]), 6.84; in data set [1] (setting [8]) it was 6.73; in data set [1] (setting [20]) it was 6.69; in data set [1] (setting [21]), 6.72. Moreover, the pH under air in data set [1] (setting [18]) is given as 6.63; in data set [1] (setting [19]) it was 6.70; in data set [1] (setting [6]) it was 7.86; in data set [1] (setting [8]), 8.43; in data set [1] (setting [20]), 6.59; in data set [1] (setting [21]), 6.51. In data set [1] (MDEA), the “Phase behaviour upon addition of 1 bar of CO2” value is “no phase separation was observed”. Besides, the “Behaviour of the system” value in data set [1] (setting [10]) is “Switchable”. Moreover, the “Phase behaviour upon addition of CO2” value in data set [1] is “phase separation was observed”. Besides, the Phases under air entry in data set [1] is given as “one phase”.
